Here are results for 27 molecules from PubChem BioAssay AID330 (DTP/NCI, 2004).

This test has as its system P388 leukemia ip, CD2F1 mice, survival T/C. Put plainly: NCI In Vivo Anticancer Drug Screen. Data for tumor model P388 Leukemia (intraperitoneal) in CD2F1 (CDF1) mice. To be noted: endpoint: median survival time, higher = longer survival. The method in brief:
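Mice carrying the transplanted tumor received test compound or vehicle. Survival was recorded in each group, and the value is the treated-group measurement divided by that of the vehicle-treated control group.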

[1] abbreviates: dose: 100.0 mg/kg/injection, schedule: Q01DX009 (ip), vehicle: saline.
Where [2] appears, read: dose: 60.0 mg/kg/injection, schedule: Q01DX005 (ip), vehicle: Klucel (hydroxypropylcellulose) (HPC).
[3] abbreviates: dose: 120.0 mg/kg/injection, schedule: Q01DX005 (ip), vehicle: Klucel (hydroxypropylcellulose) (HPC).
[4] abbreviates: dose: 240.0 mg/kg/injection, schedule: Q01DX005 (ip), vehicle: Klucel (hydroxypropylcellulose) (HPC).
Setting [5] is: dose: 100.0 mg/kg/injection, schedule: Q04DX002 (ip), vehicle: Klucel (hydroxypropylcellulose) (HPC).
[6] abbreviates: dose: 200.0 mg/kg/injection, schedule: Q04DX002 (ip), vehicle: Klucel (hydroxypropylcellulose) (HPC).
Setting [7] is: dose: 400.0 mg/kg/injection, schedule: Q04DX002 (ip), vehicle: Klucel (hydroxypropylcellulose) (HPC).
Where [8] appears, read: dose: 120.0 mg/kg/injection, schedule: Q01DX005 (ip), vehicle: saline with Tween-80.
Where [9] appears, read: dose: 240.0 mg/kg/injection, schedule: Q01DX005 (ip), vehicle: saline with Tween-80.
The mark [10] stands for this setting: dose: 50.0 mg/kg/injection, schedule: Q01DX005 (ip), vehicle: Klucel (hydroxypropylcellulose) (HPC).
Where [11] appears, read: dose: 100.0 mg/kg/injection, schedule: Q01DX005 (ip), vehicle: Klucel (hydroxypropylcellulose) (HPC).
The mark [12] stands for this setting: dose: 200.0 mg/kg/injection, schedule: Q01DX005 (ip), vehicle: Klucel (hydroxypropylcellulose) (HPC).
The mark [13] stands for this setting: dose: 50.0 mg/kg/injection, schedule: Q01DX009 (ip), vehicle: Klucel (hydroxypropylcellulose) (HPC).
The mark [14] stands for this setting: dose: 100.0 mg/kg/injection, schedule: Q01DX009 (ip), vehicle: Klucel (hydroxypropylcellulose) (HPC).
The mark [15] stands for this setting: dose: 200.0 mg/kg/injection, schedule: Q01DX009 (ip), vehicle: Klucel (hydroxypropylcellulose) (HPC).
Setting [16] is: dose: 50.0 mg/kg/injection, schedule: Q01DX005 (ip), vehicle: saline with Tween-80.
The mark [17] stands for this setting: dose: 100.0 mg/kg/injection, schedule: Q01DX005 (ip), vehicle: saline with Tween-80.
Where [18] appears, read: dose: 200.0 mg/kg/injection, schedule: Q01DX005 (ip), vehicle: saline with Tween-80.
The mark [19] stands for this setting: dose: 50.0 mg/kg/injection, schedule: Q01DX009 (ip), vehicle: saline with Tween-80.
Where [20] appears, read: dose: 100.0 mg/kg/injection, schedule: Q01DX009 (ip), vehicle: saline with Tween-80.
Setting [21] is: dose: 200.0 mg/kg/injection, schedule: Q01DX009 (ip), vehicle: saline with Tween-80.
Where [22] appears, read: dose: 6.25 mg/kg/injection, schedule: Q01DX009 (ip), vehicle: saline.
Where [23] appears, read: dose: 12.5 mg/kg/injection, schedule: Q01DX009 (ip), vehicle: saline.
The mark [24] stands for this setting: dose: 25.0 mg/kg/injection, schedule: Q01DX009 (ip), vehicle: saline.
The mark [25] stands for this setting: dose: 60.0 mg/kg/injection, schedule: Q01DX005 (ip), vehicle: saline with Tween-80.

Where “and” joins values, the source holds several entries; their conditions need not be identical. Equal entries are not always repeated. Inconclusive results and toxic doses are left out.

In the case of `O=S(=O)(O)c1cc(O)c(O)c(S(=O)(=O)O)c1`, the T/C runs as follows: under setting [1], 101 % of control and 95 % of control; (dose: 200.0 mg/kg/injection, schedule: Q01DX009 (ip), vehicle: saline) 100 % of control and 94 % of control; (dose: 400.0 mg/kg/injection, schedule: Q01DX009 (ip), vehicle: saline) 100 % of control and 103 % of control; (dose: 600.0 mg/kg/injection, schedule: Q01DX009 (ip), vehicle: saline) 104 % of control and 90 % of control.

For the molecule `CCOc1ccccc1N=Nc1c(C)nc(N)nc1OCC`, the T/C reads like this: under setting [2], 100 % of control; under setting [3], 110 % of control; under setting [4], 110 % of control.

For `N#CC1C(c2ccc(Cl)cc2)C(C(N)=O)C(=O)NC1(O)c1ccccc1` (stereo unspecified), the T/C is 100 % of control under setting [5], 99 % of control under setting [6] and 98 % of control under setting [7].

As for `CNC(=O)OCCC(OC(=O)NC)C1CCC2C3CCC4CC(OC(=O)c5ccccc5)CCC4(C)C3CCC12C` (stereo unspecified), the T/C by setting is: under setting [2], 107 % of control; under setting [3], 98 % of control; under setting [4], 93 % of control.

In the case of `CC(Nc1nncs1)Nc1nncs1`, the T/C is 105 % of control (dose: 30.0 mg/kg/injection, schedule: Q01DX005 (ip), vehicle: saline with Tween-80); 159 % of control and 162 % of control under setting [8]; 160 % of control and 170 % of control under setting [9].

Turning to `O=C(Oc1ccc[nH]c1=O)C1CCCCC1`, the T/C under setting [10] was 108 % of control and 96 % of control; the T/C under setting [11] is 100 % of control and 89 % of control; the T/C under setting [12] was 102 % of control and 86 % of control; the T/C (dose: 400.0 mg/kg/injection, schedule: Q01DX005 (ip), vehicle: Klucel (hydroxypropylcellulose) (HPC)) was 92 % of control and 97 % of control.

Take `COc1ccc(=NC(C)=O)c2c(O)c3c(=O)c4[nH]c5c(OC)ccc(=NC(C)=O)c5c(O)c4c(=O)c3[nH]c12`: the T/C is, setting by setting: under setting [13], 89 % of control; under setting [14], 99 % of control; under setting [15], 99 % of control.

For `CSC(=O)/N=C(/NC(=O)c1ccccc1)SC`, the T/C is 93 % of control under setting [10], 91 % of control under setting [11] and 92 % of control under setting [12].

`CCCCCCC(=O)/C=C/c1ccccc1OCOC`: the T/C under setting [13] was 100 % of control (2×) and 108 % of control; the T/C under setting [14] was 99 % of control and 100 % of control and 106 % of control; the T/C under setting [15] was 103 % of control and 111 % of control; the T/C (dose: 400.0 mg/kg/injection, schedule: Q01DX009 (ip), vehicle: Klucel (hydroxypropylcellulose) (HPC)) was 117 % of control.

Consider `Cc1cc(=O)c2c3c(ccc2[nH]1)Oc1ccccc1O3`, for which the T/C runs as follows: under setting [16], 101 % of control; under setting [17], 101 % of control; under setting [18], 100 % of control.

Turning to `Cc1cc[c]([Sb]2([c]3ccc(C)cc3)([c]3ccc(C)cc3)[NH]c3cc(C(c4ccccc4)(c4ccccc4)c4ccccc4)cc(C(C)(C)C)c3[O]2)cc1`, the T/C is 94 % of control under setting [19], 92 % of control under setting [20] and 99 % of control under setting [21].

With `C1CCC2=NCCCN2CC1`, the T/C is, setting by setting: (dose: 6.25 mg/kg/injection, schedule: Q01DX009 (ip), vehicle: Klucel (hydroxypropylcellulose) (HPC)) 107 % of control; (dose: 12.5 mg/kg/injection, schedule: Q01DX009 (ip), vehicle: Klucel (hydroxypropylcellulose) (HPC)) 103 % of control; (dose: 25.0 mg/kg/injection, schedule: Q01DX009 (ip), vehicle: Klucel (hydroxypropylcellulose) (HPC)) 105 % of control.

On to `CCC[CH2][Sn]([CH2]CCC)([CH2]CCC)[CH2]CCNCCCN(C)C`, for which the T/C was 96 % of control under setting [22]; 97 % of control under setting [23]; 96 % of control under setting [24]; 90 % of control (dose: 50.0 mg/kg/injection, schedule: Q01DX009 (ip), vehicle: saline); 86 % of control under setting [1].

On to `Cc1nc2cc(N(C)C)ccc2c(Cl)c1C(N)=O`, for which the T/C (dose: 15.0 mg/kg/injection, schedule: Q01DX005 (ip), vehicle: Klucel (hydroxypropylcellulose) (HPC)) is 100 % of control; the T/C (dose: 30.0 mg/kg/injection, schedule: Q01DX005 (ip), vehicle: Klucel (hydroxypropylcellulose) (HPC)) is 99 % of control; the T/C under setting [2] was 100 % of control and 96 % of control.

For `CC1(O)COC1(c1ccccc1)c1ccccc1` (stereo unspecified), the T/C is, setting by setting: under setting [25], 93 % of control; under setting [8], 96 % of control; under setting [9], 93 % of control.

As to `CC(C)C(/C=C/c1ccccc1)=N\NS(=O)(=O)c1ccccc1`, the T/C reads like this: (dose: 100.0 mg/kg/injection, schedule: Q01DX001 (ip), vehicle: saline with Tween-80) 105 % of control; (dose: 200.0 mg/kg/injection, schedule: Q01DX001 (ip), vehicle: saline with Tween-80) 98 % of control; (dose: 400.0 mg/kg/injection, schedule: Q01DX001 (ip), vehicle: saline with Tween-80) 96 % of control.

`CC(=O)CC(=O)Nc1ccc(Oc2ccccc2)cc1`: the T/C is, setting by setting: under setting [5], 100 % of control; under setting [6], 97 % of control; under setting [7], 96 % of control.

For `CC1(C)OC2OC(CN=NNc3ccc([N+](=O)[O-])cc3)C3OC(C)(C)OC3C2O1` (stereo unspecified), the T/C (dose: 60.0 mg/kg/injection, schedule: Q01DX005 (ip), vehicle: Klucel + Tween-80) was 100 % of control; the T/C (dose: 120.0 mg/kg/injection, schedule: Q01DX005 (ip), vehicle: Klucel + Tween-80) was 91 % of control; the T/C (dose: 240.0 mg/kg/injection, schedule: Q01DX005 (ip), vehicle: Klucel + Tween-80) was 87 % of control.

In the case of `C=C(C)c1nc(N)nc(-c2cccc(-c3nc(N)nc(C(=C)C)n3)c2)n1`, the T/C by setting is: under setting [10], 95 % of control; under setting [11], 99 % of control; under setting [12], 100 % of control.

As for `CN1C(=O)C2(C)SSC1(C)C(=O)N2C`, the T/C under setting [22] was 110 % of control, the T/C under setting [23] was 108 % of control and the T/C under setting [24] was 107 % of control.

Regarding `CCCN1CCc2cc3c(cc2C1)OCO3`, the T/C is 93 % of control (dose: 60.0 mg/kg/injection, schedule: Q01DX005 (ip), vehicle: saline) and 91 % of control (dose: 120.0 mg/kg/injection, schedule: Q01DX005 (ip), vehicle: saline).

For `CCn1c2ccccc2c2cc(NC(=S)NC(=O)c3cccs3)ccc21`, the T/C is 93 % of control (dose: 6.25 mg/kg/injection, schedule: Q01DX005 (ip), vehicle: saline with Tween-80); 86 % of control (dose: 12.5 mg/kg/injection, schedule: Q01DX005 (ip), vehicle: saline with Tween-80); 93 % of control (dose: 25.0 mg/kg/injection, schedule: Q01DX005 (ip), vehicle: saline with Tween-80); 90 % of control under setting [17]; 92 % of control under setting [18].

As to `C[N+]1(C)N=C([O-])N(c2ccccc2F)C1=O`, the T/C (dose: 100.0 mg/kg/injection, schedule: Q04DX003 (ip), vehicle: Klucel (hydroxypropylcellulose) (HPC)) is 99 % of control and the T/C (dose: 200.0 mg/kg/injection, schedule: Q04DX003 (ip), vehicle: Klucel (hydroxypropylcellulose) (HPC)) was 91 % of control.

Consider `CCOC(=O)c1nc2ccccc2c(=O)n1NC(=S)Nc1ccc(Cl)cc1`, for which the T/C is 93 % of control under setting [16], 93 % of control under setting [17] and 105 % of control under setting [18].

For the molecule `CSc1cc(SC)c(SC)nn1`, the T/C was 106 % of control under setting [19], 109 % of control under setting [20] and 98 % of control under setting [21].

In the case of `CCOC(=O)CNC(=O)NCc1ccccc1`, the T/C reads like this: under setting [25], 108 % of control; under setting [8], 90 % of control; under setting [9], 96 % of control.

As to `COC(=O)c1cn(C)c(-c2ccccc2)c1C(=O)OC`, the T/C under setting [10] was 100 % of control, the T/C under setting [11] was 100 % of control and the T/C under setting [12] was 97 % of control.
